The source of these data is ChEMBL document CHEMBL1131541, “New synthetic inhibitors of microtubule depolymerization” (1998).

Structures are written as SMILES. The source made the active and inactive calls. The rule behind the calls is not given here.

One may read the GI50 as the concentration giving 50% growth inhibition. A low value points to greater sensitivity of the cells.

The target of assay [1] is Tubulin beta chain (Bos taurus) (UniProt Q6B856). Nature of the assay: Compound was tested for its effect on microtubule stabilization isolated from bovine brain; NS: not significant.
Sequence of Tubulin beta chain (Bos taurus) (Q6B856 whole entry): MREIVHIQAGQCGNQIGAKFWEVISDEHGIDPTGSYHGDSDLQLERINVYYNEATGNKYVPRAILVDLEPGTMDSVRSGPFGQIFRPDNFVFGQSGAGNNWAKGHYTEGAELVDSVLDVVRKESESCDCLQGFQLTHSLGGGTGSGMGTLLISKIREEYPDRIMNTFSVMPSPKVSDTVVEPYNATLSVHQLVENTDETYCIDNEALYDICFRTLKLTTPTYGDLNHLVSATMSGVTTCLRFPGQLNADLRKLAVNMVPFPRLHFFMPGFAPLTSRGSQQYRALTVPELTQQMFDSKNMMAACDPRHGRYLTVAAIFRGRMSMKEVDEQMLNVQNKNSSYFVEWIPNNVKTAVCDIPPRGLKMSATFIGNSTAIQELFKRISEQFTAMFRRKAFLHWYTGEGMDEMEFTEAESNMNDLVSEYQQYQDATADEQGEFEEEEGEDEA
In assay [2] the test system is A498. As to the kind of experiment: Compound was tested for growth inhibitory activity against A498 cell line. Type of assay: functional. The conditions noted are these: Homo sapiens.
Assay [3] has as its system BT-549. Nature of the assay: Compound was tested for growth inhibitory activity against BT-549 cell line. Type of assay: functional. The conditions noted are these: Homo sapiens.
For assay [4], the system named is COLO 205. As to the kind of experiment: Compound was tested for growth inhibitory activity against COLO 205 cell line. Type of assay: functional. The conditions noted are these: Homo sapiens.
In assay [5] the test system is HL-60. As to the kind of experiment: Compound was tested for growth inhibitory activity against HL-60 cell line. The conditions noted are these: Homo sapiens. The assay is classed as functional.
Assay [6] has as its system HT-29. As to the kind of experiment: Compound was tested for growth inhibitory activity against HT-29 cell line. Type of assay: functional. The conditions noted are these: Homo sapiens.
The subject of assay [7] is HOP-62. As to the kind of experiment: Compound was tested for growth inhibitory activity against HOP-62 cell line. Type of assay: functional. The conditions noted are these: Homo sapiens.
Assay [8] has as its system HCC 2998. As to the kind of experiment: Compound was tested for growth inhibitory activity against HCC2998 cell line. The conditions noted are these: Homo sapiens. Type of assay: functional.
The test system of assay [9] is Hs-578T. Nature of the assay: Compound was tested for growth inhibitory activity against HS 578T cell line. The assay is classed as functional. The conditions noted are these: Homo sapiens.
For assay [10], the system named is NCI/ADR-RES. As to the kind of experiment: Compound was tested for growth inhibitory activity against MCF-7/ADR cell line. The assay is classed as functional. The conditions noted are these: Homo sapiens.
Assay [11] relates to MCF7. As to the kind of experiment: Compound was tested for growth inhibitory activity against MCF-7 cell line. Type of assay: functional. The conditions noted are these: Homo sapiens.
For assay [12], the system named is MDA-MB-435. As to the kind of experiment: Compound was tested for growth inhibitory activity against MDA-MB-435 cell line. The assay is classed as functional. The conditions noted are these: Homo sapiens.
The subject of assay [13] is NCI-H522. As to the kind of experiment: Compound was tested for growth inhibitory activity against NCI-H522 cell line. Type of assay: functional. The conditions noted are these: Homo sapiens.
Assay [14] concerns OVCAR-3. As to the kind of experiment: Compound was tested for growth inhibitory activity against OVCAR-3 cell line. The assay is classed as functional. The conditions noted are these: Homo sapiens.
Assay [15] concerns OVCAR-8. Nature of the assay: Compound was tested for growth inhibitory activity against OVCAR-8 cell line. Type of assay: functional. The conditions noted are these: Homo sapiens.
For assay [16], the system named is PC-3. Nature of the assay: Compound was tested for growth inhibitory activity against PC-3 cell line. Type of assay: functional. The conditions noted are these: Homo sapiens.
For assay [17], the system named is RXF 393. Nature of the assay: Compound was tested for growth inhibitory activity against RXF 393 cell line. Type of assay: functional. The conditions noted are these: Homo sapiens.
For assay [18], the system named is SF-268. As to the kind of experiment: Compound was tested for growth inhibitory activity against SF-268 cell line. Type of assay: functional. The conditions noted are these: Homo sapiens.
Assay [19] deals with SK-MEL-2. Nature of the assay: Compound was tested for growth inhibitory activity against SK-MEL-2. Type of assay: functional. The conditions noted are these: Homo sapiens.
The test system of assay [20] is SF-539. As to the kind of experiment: Compound was tested for growth inhibitory activity against SF-539 cell line. The assay is classed as functional. The conditions noted are these: Homo sapiens.
The subject of assay [21] is SNB-19. As to the kind of experiment: Compound was tested for growth inhibitory activity against SNB-19 cell line. The assay is classed as functional. The conditions noted are these: Homo sapiens.
The subject of assay [22] is SR. As to the kind of experiment: Compound was tested for growth inhibitory activity against SR cell line. The assay is classed as functional. The conditions noted are these: Homo sapiens.
The test system of assay [23] is SK-MEL-5. As to the kind of experiment: Compound was tested for growth inhibitory activity against SK-MEL-5 cell line. Type of assay: functional. The conditions noted are these: Homo sapiens.
The subject of assay [24] is UO-31. Nature of the assay: Compound was tested for growth inhibitory activity against UO-31 cell line. The conditions noted are these: Homo sapiens. Type of assay: functional.
In assay [25] the target is Tubulin beta chain (Bos taurus) (UniProt Q6B856). As to the kind of experiment: Effect on microtubule stabilization isolated from bovine brain.
Assay [26] relates to U-251. As to the kind of experiment: Compound was tested for growth inhibitory activity against U251 cell line. The conditions noted are these: Homo sapiens. The assay is classed as functional.
For assay [27], the system named is NCI-H226. As to the kind of experiment: Compound was tested for growth inhibitory activity against NCI-H226 cell line. Type of assay: functional. The conditions noted are these: Homo sapiens.
In assay [28] the test system is 786-0. Nature of the assay: Compound was tested for growth inhibitory activity against 786-0 cell line. Type of assay: functional. The conditions noted are these: Homo sapiens.
Assay [29] relates to SF-295. As to the kind of experiment: Compound was tested for growth inhibitory activity against SF-295 cell line. The assay is classed as functional. The conditions noted are these: Homo sapiens.
Assay [30] deals with SK-OV-3. As to the kind of experiment: Compound was tested for growth inhibitory activity against SK-OV-3 cell line. The conditions noted are these: Homo sapiens. The assay is classed as functional.
Assay [31] has as its system UACC-62. Nature of the assay: Compound was tested for growth inhibitory activity against UACC-62 cell line. The assay is classed as functional. The conditions noted are these: Homo sapiens.
In assay [32] the test system is HCT-15. As to the kind of experiment: Compound was tested for growth inhibitory activity against HCT-15 cell line. Type of assay: functional. The conditions noted are these: Homo sapiens.
Assay [33] deals with KM12. Nature of the assay: Compound was tested for growth inhibitory activity against KM12 cell line. Type of assay: functional. The conditions noted are these: Homo sapiens.
The test system of assay [34] is M14. As to the kind of experiment: Compound was tested for growth inhibitory activity against M14 cell line. Type of assay: functional. The conditions noted are these: Homo sapiens.
Assay [35] deals with MOLT-4. As to the kind of experiment: Compound was tested for growth inhibitory activity against MOLT-4 cell line. Type of assay: functional. The conditions noted are these: Homo sapiens.
The target in assay [36] is Tubulin beta chain (Bos taurus) (UniProt Q6B856). As to the kind of experiment: Compound was tested for its effect on microtubule stabilization isolated from bovine brain; not significant.
In assay [37] the test system is SK-MEL-2. Nature of the assay: Compound was tested for growth inhibitory activity against SK-MEL-2 cell line. The assay is classed as functional. The conditions noted are these: Homo sapiens.
For assay [38], the target named is Tubulin beta chain (Bos taurus) (UniProt Q6B856). As to the kind of experiment: Compound was tested for its effect on microtubule stabilization isolated from bovine brain; compound was inactive.

Consider `CCNC(=O)N[C@@H](c1ccccc1)[C@@H](O)C(=O)OC1CC2C(C)(C)C1(C)[C@@]13C[C@H](C)c4ccccc4[C@@]21O3` (some centres undefined), for which, in [1], the Relative stability entry is “inactive”.
As to `COC(=O)N[C@@H](c1ccncc1)[C@@H](O)C(=O)OC1CC2C(C)(C)C1(C)[C@@]13CC(C)c4ccccc4[C@@]21O3` (some centres undefined), the GI50 in assay [2] is 12300 nM; in [3], 22900 nM; in assay [4] it was 1860 nM; in assay [5], 871 nM; in assay [6], 447 nM; in [7] it was 6170 nM. In addition, the GI50 in assay [8] was 525 nM; in [9] it was 1480 nM; in assay [10] it was 1910 nM; in [11], 2820 nM; in assay [12], 589 nM; in [13] it was 813 nM. Further, the GI50 is 1860 nM in assay [14]; 2450 nM in [15]; 3020 nM in assay [16]; 4570 nM in assay [17]; 3800 nM in assay [18]; 2570 nM in assay [19]. Besides, the GI50 in assay [20] is 4680 nM; in [21], 2190 nM; in assay [22], 1450 nM; in assay [23], 2340 nM; in [24] it was 562 nM; in assay [26], 3980 nM. Also, the GI50 in assay [27] was 977 nM; in [28], 2750 nM; in [29], 2090 nM; in [30], 1910 nM; in assay [31] it was 2630 nM; in assay [32], 977 nM. Also, the GI50 in assay [33] was 933 nM; in assay [34], 1740 nM; in assay [35], 4680 nM. In addition, the Relative stability in [25] was -5%.
Regarding `CCOC(=O)N[C@@H](c1ccc(OCc2ccccc2)cc1)[C@@H](O)C(=O)OC1CC2C(C)(C)C1(C)[C@@]13C[C@H](C)c4ccccc4[C@@]21O3` (some centres undefined), the Relative stability result in [1] was “inactive”.
With `C=C1C[C@@]23O[C@]2(c2ccccc21)C1CC(OC(=O)[C@H](O)[C@@H](NC(=O)CC(C)(C)C)c2ccccc2)C3(C)C1(C)C` (some centres undefined), the Relative stability entry in [36] was “inactive”.
As to `CC(=O)O[C@H]1C(=O)[C@@]2(C)[C@H]([C@H](OC(=O)c3ccccc3)[C@]3(O)C[C@H](OC(=O)[C@H](O)[C@@H](NC(=O)c4ccccc4)c4ccccc4)C(C)=C1C3(C)C)[C@]1(OC(C)=O)CO[C@@H]1C[C@@H]2O` [PACLITAXEL], the GI50 is 79.4 nM in assay [2]; 6.31 nM in assay [3]; 3.16 nM in [4]; 5.01 nM in assay [5]; 2.51 nM in assay [6]; 15.8 nM in assay [7]. For the same compound, the GI50 is 3.98 nM in assay [8]; 3.16 nM in assay [9]; 3160 nM in [10]; 3.16 nM in assay [11]; 2.51 nM in assay [12]; 3.16 nM in assay [13]. For the same compound, the GI50 in assay [14] was 3.16 nM; in assay [15], 5.01 nM; in [16], 3.98 nM; in [17], 7.94 nM; in assay [18], 7.94 nM; in assay [37] it was 5.01 nM. Moreover, the GI50 in [20] was 3.16 nM; in assay [21], 10 nM; in assay [22] it was 2.51 nM; in assay [23] it was 3.98 nM; in [24], 1000 nM; in assay [26] it was 3.98 nM. The GI50 was 31.6 nM in [27]; 19.9 nM in assay [28]; 15.8 nM in assay [29]; 10 nM in assay [30]; 3.98 nM in [31]; 200 nM in assay [32]. Also, the results for the GI50 in assay [33], in assay [34] and in [35] were 3.16 nM, 10 nM and 3.98 nM, respectively.
On to `CCCCOC(=O)N[C@@H](c1ccccc1)[C@@H](O)C(=O)OC1CC2C(C)(C)C1(C)[C@@]13C[C@H](C)c4ccccc4[C@@]21O3` (some centres undefined), for which the Relative stability entry in assay [1] was “inactive”.
For `C[C@@H]1C[C@@]23O[C@]2(c2ccccc21)C1CC(OC(=O)[C@H](O)[C@@H](NC(=O)OC(C)(C)C)c2ccccc2)C3(C)C1(C)C` (some centres undefined), the Relative stability result in [38] is “inactive”.
Regarding `C=C1C[C@@]23O[C@]2(c2ccccc21)C1CC(OC(=O)[C@H](O)[C@@H](NC(=O)OCC)c2ccc(OCc4ccccc4)cc2)C3(C)C1(C)C` (some centres undefined), the Relative stability entry in assay [1] was “inactive”.
Turning to `CCOC(=O)N[C@@H](c1ccccc1)[C@@H](O)C(=O)OC1CC2C(C)(C)C1(C)[C@@]13C[C@@H](C)c4ccccc4[C@@]21O3` (some centres undefined), the Relative stability entry in assay [1] was “inactive”.
